Experimental data from patent US20240343729A1 (priority 2021, published 2024).

Assays:
Human PDE10A2 [1] = biological target: T1, Human PDE10A2 (Homo sapiens (Human), UniProt Q9Y233); test: cell-based; conditions: Forskolin 10 μM; read-out: cAMP HTRF Assay in HEK 293 rhPDE10A2 cell line (pIC50) (converted)
Description: Semi log compound dilutions starting at a final concentration of 10 μM were dispensed into a white 384 well plate, alongside DMSO and an Inhibited control using the Tecan D300e digital dispenser. HEK 293 cells overexpressing recombinant human PDE10A2 were seeded on top of the compounds at 2500 cells/well in a volume 5 μL/well. The plate was incubated at room temperature for 60 minutes. To induce endogenous cAMP, 5 μL/well of Forskolin at a final assay concentration of 10 μM was added to the plate. The plate was incubated at room temperature for a further 45 minutes. cAMP HTRF detection reagents were added, and the plate was incubated for 60 minutes at room temperature. […] Data was analysed using a 4-parameter fit.

Human PDE10A2 [2] = biological target: T1, Human PDE10A2; test: biochemical; type: biochemical; conditions: human PDE10A2 0.25 nM, cGMP 3 μM
Description: Semi Log compound dilutions starting at a final concentration of 50 μM were dispensed into a black 384 well plate alongside, DMSO and an Inhibited control using the Echo Acoustic dispenser. […] Data was analysed using a 4-parameter fit.

[3] = tested on: inflamed colonic mucosa from ulcerative colitis patients; test: Ex-vivo culture of colon biopsies from ulcerative colitis patients, cytokine release (Protocol 1); type: cell-based, human; conditions: UC colon biopsies, two patients; PF-02545920 0.1 μM and 1 μM, TAK-063 1 uM; 24 h; compared to DMSO vehicle
Description: The effect of selective PDE10A inhibition was tested on inflamed colonic mucosa from ulcerative colitis patients taken during routine endoscopy (Protocol 1 detailed below). These samples retain a disease phenotype in ex-vivo culture, secrete high basal levels of inflammatory cytokines, and represent a highly relevant and translational disease model. The effect of the PDE10A inhibitors on levels of the inflammatory cytokines IL-6 and IL-8 released from these tissue samples were measured. Both IL-6 and IL-8 are key regulators in ulcerative colitis pathology and their levels correlate with disease severity (Waldner M J et al. Master regulator of intestinal disease: IL-6 in chronic inflammation and cancer development. Semin Immunol. 26(1), 75-9 (2014); Bernardo D et al. IL-6 promotes immune responses in human ulcerative colitis and induces a skin-homing phenotype in the dendritic cells and T-cells they stimulate. Eur J Immunol. 42(5), 1337-53 (2012); Pearl D S, Cytokine mucosal expression in ulcerative colitis, the relationship between cytokine release and disease activity. J Crohns Colitis. 7(6), 481-9 (2013)).
These colon biopsies retain an inflammatory phenotype and secrete high levels of inflammatory cytokines in ex-vivo culture.
Biopsy tissue was obtained from inflamed colonic mucosa from ulcerative colitis or Crohn's disease patients during routine endoscopy. […] Biopsies were incubated in organ culture for 24 h with the addition of positive control compounds, or specific PDE10A inhibitors. Supernatants collected at the end of the experiment were snap-frozen and stored at −70° C. For the measurement of cytokines, the frozen culture supernatants were thawed and analysed for levels of the inflammatory cytokines using Luminex cytokine assay kits (R&D Systems) and an R&D Systems MAGPIX® analyser. Mean values±SDs were calculated for the levels of spontaneous cytokine production measured in biopsy culture supernatants from each treatment group.

other PDE family members = conditions: literature value; read-out: IC50s for other PDE family members; cited from earlier work
[4] = tested on: inflamed colonic mucosa from pharmacotherapy treatment-refractory ulcerative colitis patients; test: Ex-vivo culture of resected colon tissue from treatment-refractory ulcerative colitis patients, TNFα release (Protocol 2); type: cell-based, human; conditions: 1 μM; two UC patients; SEB present; about 18 hours; compared to DMSO vehicle
[5] = tested on: inflamed colonic mucosa from Crohn's Disease patients; test: Ex-vivo culture of colon biopsies from Crohn's disease patients, cytokine release (Protocol 1); type: cell-based, human; conditions: 0.1 uM; 2 independent CD patient biopsies; compared to DMSO vehicle
Description: In addition, we tested the effect of selective PDE10A inhibition using 0.1 uM PF-2545920 on inflamed colonic mucosa from Crohn's Disease patients taken during routine endoscopy (Protocol 1).
Biopsy tissue was obtained from inflamed colonic mucosa from ulcerative colitis or Crohn's disease patients during routine endoscopy. Ex-vivo biopsy cultures for the analysis of inflammatory cytokine biomarkers were run as previously described (Vossenksmper A. et al. A CD3-specific antibody reduces cytokine production and alters phosphoprotein profiles in intestinal tissues from patients with inflammatory bowel disease. Gastroenterology, 147, 172-183 (2014)). Biopsies were incubated in organ culture for 24 h with the addition of positive control compounds, or specific PDE10A inhibitors. Supernatants collected at the end of the experiment were snap-frozen and stored at −70° C. For the measurement of cytokines, the frozen culture supernatants were thawed and analysed for levels of the inflammatory cytokines using Luminex cytokine assay kits (R&D Systems) and an R&D Systems MAGPIX® analyser. Mean values±SDs were calculated for the levels of spontaneous cytokine production measured in biopsy culture supernatants from each treatment group.

[6] = tested on: isolated human neutrophil; test: In vitro assay of IL-8 neutrophil activation; type: cell-based

T1 sequence (Q9Y233 267-1055): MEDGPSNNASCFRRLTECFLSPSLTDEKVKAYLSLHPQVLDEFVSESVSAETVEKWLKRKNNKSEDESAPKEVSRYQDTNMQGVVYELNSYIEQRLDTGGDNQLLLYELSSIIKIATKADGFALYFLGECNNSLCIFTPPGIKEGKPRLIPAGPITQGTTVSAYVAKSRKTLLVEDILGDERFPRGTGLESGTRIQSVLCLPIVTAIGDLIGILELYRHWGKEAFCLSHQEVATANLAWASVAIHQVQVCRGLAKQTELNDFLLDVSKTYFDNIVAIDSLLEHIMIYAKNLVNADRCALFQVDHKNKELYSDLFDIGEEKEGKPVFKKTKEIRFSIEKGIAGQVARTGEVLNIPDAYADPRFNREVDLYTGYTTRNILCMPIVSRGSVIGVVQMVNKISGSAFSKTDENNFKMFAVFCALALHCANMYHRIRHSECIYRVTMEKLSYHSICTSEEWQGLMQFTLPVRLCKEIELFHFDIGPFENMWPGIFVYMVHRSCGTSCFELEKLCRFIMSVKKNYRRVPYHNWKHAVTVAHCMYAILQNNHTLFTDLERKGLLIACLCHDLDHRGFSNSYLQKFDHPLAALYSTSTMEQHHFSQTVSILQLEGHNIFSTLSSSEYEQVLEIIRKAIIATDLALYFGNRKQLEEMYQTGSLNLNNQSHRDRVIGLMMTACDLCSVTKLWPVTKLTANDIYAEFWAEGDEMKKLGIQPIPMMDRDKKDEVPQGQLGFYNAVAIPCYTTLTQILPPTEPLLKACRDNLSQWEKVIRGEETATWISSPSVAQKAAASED

SMILES	IC50 (Human PDE10A2 [1]) [nM]	PDE10A2 Phosphate Sensor Enzyme Assay (pIC50) (Human PDE10A2 [2])	other results
Cn1cc(-c2ccccc2)nc1C#Cc1nc(N2CC3(COC3)C2)c2ncn(C)c2n1 [Example 1, 6-[9-Methyl-2-[2-(1-methyl-4-phenyl-imidazol-2-yl)ethynyl]purin-6-yl]-2-oxa-6-azaspiro[3.3]heptane]	1.17	9.26	–
Cn1cc(-c2ccccc2)nc1C#Cc1nc(N2C[C@H]3COC[C@H]3C2)c2cnn(C3COC3)c2n1 [Example 19, (3aR,6aS)-5-(6-((1-Methyl-4-phenyl-1H-imidazol-2-yl)ethynyl)-1-(oxetan-3-yl)-1H-pyrazolo[3,4-d]pyrimidin-4-yl)hexahydro-1H-furo[3,4-c]pyrrole]	11.2	9.41	–
Cn1cc(-c2ccccc2)nc1C#Cc1nc2c(c(N3CCOCC3)n1)CCN(CC1CC1)C2 [Example 15, 4-[7-(Cyclopropylmethyl)-2-[2-(1-methyl-4-phenyl-imidazol-2-yl)ethynyl]-6,8-dihydro-5H-pyrido[3,4-d]pyrimidin-4-yl]morpholine]	562	8.72	–
Cn1cnc2c(N3CC4(COC4)C3)nc(C#Cc3nc(-c4ccccc4)cn3CC3CCOCC3)nc21 [Example 4, 6-[9-Methyl-2-[2-[4-phenyl-1-(tetrahydropyran-4-ylmethyl)imidazol-2-yl]ethynyl]purin-6-yl]-2-oxa-6-azaspiro[3.3]heptane]	6.31	9.00	–
COc1cn(-c2ccc(-n3cccn3)cc2F)nc(-c2ccnn2-c2ccccc2)c1=O [TAK-063, 1-[2-fluoro-4-(1H-pyrazol-1-yl)phenyl]-5-methoxy-3-(1-phenyl-1H-pyrazol-5-yl)pyridazin-4(1H)-one]	–	–	secreted levels of IL-6 [3]: significantly reduced; secreted levels of IL-8 [3]: significantly reduced; IC50 (other PDE family members): > 5000 nM
Cn1cc(-c2ccncc2)c(-c2ccc(OCc3ccc4ccccc4n3)cc2)n1 [PF-02545920]	–	–	secreted levels of TNFα [4]: significantly reduced; secreted levels of IL-6 [5]: significantly reduced; secreted levels of IL-8 [5]: significantly reduced; IL-8 induced neutrophil activation [6]: dose dependently inhibited; secreted levels of IL-6 [3]: significantly reduced; secreted levels of IL-8 [3]: significantly reduced; IC50 (other PDE family members): > 1000 nM
Cn1cc(-c2ccccc2)nc1C#Cc1nc(N2C[C@H]3COC[C@H]3C2)c2ncn(C)c2n1 [Example 20, (3aR,6aS)-5-(9-Methyl-2-((1-methyl-4-phenyl-1H-imidazol-2-yl)ethynyl)-9H-purin-6-yl)hexahydro-1H-furo[3,4-c]pyrrole]	8.71	9.53	–
C[C@@H]1COCCN1c1nc(C#Cc2nc(-c3ccccc3)cn2C)nc2c1CCNC2 [Example 12, (3R)-3-Methyl-4-[2-[2-(1-methyl-4-phenyl-imidazol-2-yl)ethynyl]-5,6,7,8-tetrahydropyrido[3,4-d]pyrimidin-4-yl]morpholine]	0.437	10.40	–
CN(C)CCOc1cccc(-c2c[nH]c(C#Cc3nc(N4C[C@H]5COC[C@H]5C4)c4cnn(C)c4n3)n2)c1 [Example 10, 2-[3-[2-[2-[4-[(3aS,6aR)-1,3,3a,4,6,6a-Hexahydrofuro[3,4-c]pyrrol-5-yl]-1-methyl-pyrazolo[3,4-d]pyrimidin-6-yl]ethynyl]-1H-imidazol-4-yl]phenoxy]-N,N-dimethyl-ethanamine]	0.661	10.4	–
